Tested on: ex-vivo carotid artery segment of the mouse
Experiment: Ex-vivo carotid artery segment incubated with TEMPOL in vitro (EDD)
Design: species or system C57BL/6 male mice
Description: After 8 weeks, the mice were anesthetized with isoflurane and euthanized by bloodletting through cardiac puncture. The carotid artery was excised, the […] was inserted into the tip of a glass micropipette, and fixed with a nylon suture in a myograph chamber (DMTInc., Ann Arbor, Mich., USA) containing a buffered saline solution.
The artery was pressurized to 50 mm Hg at 37° C. and equilibrated for 45 minutes before the experiment. After sub-polar contraction was performed using phenylephrine (2 μM), the diameter of the arterial lumen was increased to the degree of response of acetylcholine (Ach: 1×10^−91×10^−4 M), and the arterial tube treated with acetylcholine was used to determine […] dilation by vasodilation in response to NO donor sodium nitroprusside (SNP: 1×10^−101×10^−4 M). Calculated according to the following formula, the vasodilation response was recorded as the actual diameter due to the difference in the maximum carotid artery diameter of the young and old animals, expressed as a percentage of the maximum reaction. The formula is as follows:
Dilation (%)=(Ds−Db)/(Dm−Db)×100%;
wherein, Dm is the maximum diameter of the lumen under a pressure of 50 mm Hg pressure; Db is the steady-state lumen diameter after pre-contraction before the first addition of the drug; Ds is the steady-state lumen diameter recorded after the drug is added.

CC1(C)CC(O)CC(C)(C)N1[O] [TEMPOL, 4-hydroxy-2,2,6,6-tetramethylpiperidin-1-yloxy]
EDD of the carotid artery after incubation in vitro (old control group): restored the EDD
EDD of the carotid artery after incubation in vitro (other groups (young control, young and old experimental groups)): no effect

Reference: patent US20210322450A1, “APPLICATION OF COMPOSITION CONTAINING NICOTINAMIDE MONONUCLEOTIDE IN ANTI-AGING DRUGS/HEALTHCARE PRODUCTS” (HOBOOMLIFE BIO-TECHNOLOGY (SHENZHEN) CO., LTD., priority 2019, published 2021)
